Results: ChEMBL document CHEMBL5608178, “Design and synthesis of 7-membered lactam fused hydroxypyridinones as potent metal binding pharmacophores (MBPs) for inhibiting influenza virus PAN endonuclease” (Eur J Med Chem, 2024)

Assays:
[1] = target: Polymerase acidic protein (Influenza A virus (A/Puerto Rico/8/1934(H1N1))) (UniProt P03433); test: Inhibition of Influenza A virus N-terminal Polymerase acidic protein endonuclease activity in HEK293T cells transfected with IAV RNA polymerase complex and firefly/renilla luciferase reporter at 10 uM by […] Dual-Glo luciferase assay relative to control; type: cell-based
[2] = target: Polymerase acidic protein (Influenza A virus (A/Puerto Rico/8/1934(H1N1)), UniProt P03433); test: Inhibition of Influenza A virus N-terminal Polymerase acidic protein endonuclease activity in HEK293T cells transfected with IAV RNA polymerase complex and firefly/renilla luciferase reporter by […] Dual-Glo luciferase assay; type: cell-based
[3] = Cytotoxicity against MDCK cells assessed as decrease in survival rate; type: toxicity, cell-based, Canis lupus familiaris; conditions: dog
Influenza A virus [4] = test: Antiviral activity against Influenza A virus A/WSN/33, H1N1 infected in MDCK cells assessed as decrease in viral replication incubated for 72 hrs; type: functional, organism-based; conditions: A/WSN/33, H1N1, MDCK
Influenza A virus [5] = test: Antiviral activity against Influenza A virus A/WSN/33, H1N1 infected in MDCK cells assessed as suppression of viral titer at 3 uM incubated for 72 hrs relative to control; type: functional

SMILES | inhibition [1] [%] | IC50 [2] [nM] | CC50 [3] [nM] | EC50 (Influenza A virus [4]) [nM] | Activity (Influenza A virus [5]) [%]
O=C1N[C@H](Cc2ccccc2)CN(C2c3ccccc3CCc3ccccc32)n2ccc(=O)c(O)c21 | 49.5 | – | – | – | –
CC(C)C[C@@H]1CN(C2c3ccccc3CCc3ccccc32)n2ccc(=O)c(O)c2C(=O)N1 | 56.4 | – | – | – | –
O=C1c2c(O)c(=O)ccn2N(C(c2ccccc2)c2ccccc2)C[C@H]2CCCN12 | 48.2 | – | – | – | –
O=C1c2c(O)c(=O)ccn2N([C@@H]2c3ccccc3SCc3c2ccc(F)c3F)C[C@H]2CCCN12 | – | 45 | 15400 | 134 | –
O=C1c2c(O)c(=O)ccn2N([C@H]2c3ccccc3SCc3c2ccc(F)c3F)C[C@H]2CCCN12 | – | 231 | 98500 | 2880 | –
CSCC[C@@H]1CN(C2c3ccccc3CCc3ccccc32)n2ccc(=O)c(O)c2C(=O)N1 | 64.2 | – | – | – | –
O=C1c2c(O)c(=O)ccn2N([C@@H]2c3ccccc3SCc3c2ccc(F)c3F)[C@@H]2COCCN12 [BALOXAVIR] | 99 | 1 | 28800 | 1 | –
O=C1c2c(O)c(=O)ccn2N(C2c3ccccc3SCc3c2ccc(F)c3F)C[C@H]2CCCN12 (stereo not given in full) | 99.6 | 82 | 29600 | 421 | 99.9
O=C1c2c(O)c(=O)ccn2N(C2c3ccccc3CCc3ccccc32)C[C@@H]2CCCCN12 | 36.5 | – | – | – | –
O=C1c2c(O)c(=O)ccn2N(C2c3ccccc3CCc3ccccc32)C[C@H]2CCCN12 | 81.1 | 2870 | 34300 | 724 | –
CC(C)[C@H]1CN(C2c3ccccc3CCc3ccccc32)n2ccc(=O)c(O)c2C(=O)N1 | 31 | – | – | – | –
O=C1N[C@@H](Cc2ccccc2)CN(C2c3ccccc3CCc3ccccc32)n2ccc(=O)c(O)c21 | 49 | – | – | – | –
O=C1NC2(CCCC2)CN(C2c3ccccc3CCc3ccccc32)n2ccc(=O)c(O)c21 | 9.2 | – | – | – | –
O=C1c2c(O)c(=O)ccn2N(C(c2ccc(F)cc2)c2ccc(F)cc2)C[C@H]2CCCN12 | 50.1 | – | – | – | –
CC(C)C[C@H]1CN(C2c3ccccc3CCc3ccccc32)n2ccc(=O)c(O)c2C(=O)N1 | 22.4 | – | – | – | –
O=C1c2c(O)c(=O)ccn2N(C2c3ccccc3C=Cc3ccccc32)C[C@H]2CCCN12 | 91.9 | 437 | 62900 | 292 | 82.2
C[C@H]1CN(C2c3ccccc3CCc3ccccc32)n2ccc(=O)c(O)c2C(=O)N1 | 37.6 | – | – | – | –
O=C1c2c(O)c(=O)ccn2N(C2c3ccccc3CCc3ccccc32)C[C@H]2CCCCN12 | 66.9 | – | – | – | –
O=C1N[C@H](c2ccccc2)CN(C2c3ccccc3CCc3ccccc32)n2ccc(=O)c(O)c21 | 31.6 | – | – | – | –
O=C1c2c(O)c(=O)ccn2N(C2c3ccccc3CCc3ccccc32)C[C@@H]2CCCN12 | 68.2 | – | – | – | –
C[C@@H]1CN(C2c3ccccc3CCc3ccccc32)n2ccc(=O)c(O)c2C(=O)N1 | 75.3 | – | – | – | –
CSCC[C@H]1CN(C2c3ccccc3CCc3ccccc32)n2ccc(=O)c(O)c2C(=O)N1 | 30.5 | – | – | – | –
